# Calls of active or inactive are those of the source.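 The calls were made as follows: active = inhibition zone diameter above 0 mm; inactive = zone diameter of 0 mm or less.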
# System: Candida albicans ATCC 90028, disc diffusion zone, 24 h
# Assay: antifungal activity against C. albicans – disc diffusion, zone diameter, TPT1 inhibitor project, late-stage follow-up (AID 434975)
# Settings: at 10 mM; stronger effect = higher value
row,SMILES,inhibition zone diameter
1,CC1=C(C#N)C(=O)N(C2CCS(=O)(=O)C2)C(=O)/C1=C\c1ccco1 (stereo not drawn),0 mm (inactive)
2,O=c1oc2c(O)c(O)cc3c(=O)oc4c(O)c(O)cc1c4c23,0 mm (inactive)
3,OC(Cn1cncn1)(Cn1cncn1)c1ccc(F)cc1F,38 mm
4,Cc1ccccc1N1C(=O)/C(=C/c2ccco2)C(=O)NC1=S,0 mm (inactive)
5,COc1ccc(OC)c(N2C(=O)/C(=C/c3ccco3)C(=O)NC2=S)c1,0 mm (inactive)
6,Cc1cc(C)n(Cc2ccc(C(=O)NN=Cc3ccc(-c4ccc([N+](=O)[O-])cc4)o3)o2)n1,0 mm (inactive)
7,NC(=O)c1cc[n+](CC2=C(C(=O)O)N3C(=O)[C@@H](NC(=O)C(c4ccccc4)S(=O)(=O)O)[C@H]3SC2)cc1 (stereo partly drawn),0 mm (inactive)
8,Cc1ccc(N2C(=O)NC(=O)/C(=C\c3ccc([N+](=O)[O-])o3)C2=O)cc1,12.6 mm
